Data as given in patent US20160016958A1, “Method of Labeling Flumazenil with F-18 and Separating and Purifying F-18-Flumazenil” (Institute of Nuclear Energy Research, Atomic Energy …, priority 2014, published 2016).

Test: lipophilicity test, octanol/PBS partition with gamma counter
Assay type: physicochemical

Q: For `CCOC(=O)c1ncn2c1CN(C)C(=O)c1cc([18F])ccc1-2` [F-18-flumazenil], which “log P value” is on record?
A: Its value is 1.49±0.12.
